From BindingDB's records for doi:10.7270/Q2M043TQ (Nmmlsc, 2010)

Target: T1, Regulator of G-protein signaling 8 (Homo sapiens, UniProt P57771)
T1 sequence (P57771 whole entry): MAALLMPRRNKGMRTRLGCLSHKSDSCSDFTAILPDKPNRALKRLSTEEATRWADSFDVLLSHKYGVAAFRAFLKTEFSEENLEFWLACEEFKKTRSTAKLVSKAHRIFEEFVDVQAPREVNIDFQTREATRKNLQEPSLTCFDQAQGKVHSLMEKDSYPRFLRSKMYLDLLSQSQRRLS
Test: RGS8-Galphao interaction modulators, SAR follow-up, biochemical, multiplex bead flow cytometry, SAR compounds (AID 2307)

EC50 [nM]	EC50 (inactive by the depositor's call) [nM]	Structure (SMILES)
21	–	CN1CCN(C2=C(Cl)C(=O)C(c3cnc(N4CCCCC4)s3)=C(Cl)C2=O)CC1
573	–	CCN=c1scc(C)n1N=Cc1ccc(O)c(O)c1O
411	–	CCN(CC)S(=O)(=O)c1cccc(C(=O)NN=Cc2ccc(O)c(O)c2O)c1
522	–	Cc1[nH]n(-c2ccccc2)c(=S)c1C=NCCCN=Cc1c(C)[nH]n(-c2ccccc2)c1=S
3180	–	Cc1cccc(N2CCN(C(=O)COc3nsc4nc(C)cc(C)c34)CC2C)c1 (configuration not stated)
> 30000	–	Cc1cccc(N2CCN(C(=O)Cn3ccc4nc(C)cc(C)c4c3=O)CC2C)c1 (configuration not stated) [2,4-dimethyl-6-[2-[3-methyl-4-(3-methylphenyl)piperazin-1-yl]-2-oxidanylidene-ethyl]-1,6-naphthyridin-5-one]
> 30000	–	Cc1cc(C)c2c(=O)n(CC(=O)N3CCN(c4ccccc4)CC3)ccc2n1 [2,4-dimethyl-6-[2-oxidanylidene-2-(4-phenylpiperazin-1-yl)ethyl]-1,6-naphthyridin-5-one]
> 30000	–	Cc1cc(C)c2c(n1)CCN(CC(=O)N1CCN(c3ccccc3)CC1)C2=O [2,4-dimethyl-6-[2-oxidanylidene-2-(4-phenylpiperazin-1-yl)ethyl]-7,8-dihydro-1,6-naphthyridin-5-one]
29	–	O=c1c2ccccc2sn1-c1ccc(S(=O)(=O)N2CCCC2)cc1 [2-(4-pyrrolidin-1-ylsulfonylphenyl)-1,2-benzothiazol-3-one]
550	–	Cc1cccc(N2CCN(C(=O)Cn3sc4nc(C)cc(C)c4c3=O)CC2C)c1 (configuration not stated) [2-[2-keto-2-[3-methyl-4-(m-tolyl)piperazino]ethyl]-4,6-dimethyl-isothiazolo[5,4-b]pyridin-3-one]
> 30000	–	Cc1cccc(N2CCN(C(=O)COc3noc4nc(C)cc(C)c34)CC2C)c1 (configuration not stated) [2-[(4,6-dimethyl-[1,2]oxazolo[5,4-b]pyridin-3-yl)oxy]-1-[3-methyl-4-(3-methylphenyl)piperazin-1-yl]ethanone]
> 30000	–	O=c1c2ccccc2sn1-c1ccccc1 [2-phenyl-1,2-benzothiazol-3-one]
3130	–	CCN(CC)S(=O)(=O)c1cccc(-c2n[nH]c(=S)n2N=Cc2ccc(C(=O)OC)cc2)c1 [4-[(E)-[3-[3-(diethylsulfamoyl)phenyl]-5-thioxo-1H-1,2,4-triazol-4-yl]iminomethyl]benzoic acid methyl ester]
29	–	NS(=O)(=O)c1ccc(N=NCc2ccc(O)c(O)c2O)c([N+](=O)[O-])c1 [4-[[(E)-(2,3-dihydroxy-4-oxo-1-cyclohexa-2,5-dienylidene)methyl]hydrazo]-3-nitrobenzenesulfonamide]
318	–	CN=c1scc(C)n1N=Cc1ccc(O)c(O)c1O [(4E)-2,3-dihydroxy-4-[[(4-methyl-2-methylimino-1,3-thiazol-3-yl)amino]methylidene]cyclohexa-2,5-dien-1-one]
218	–	Cc1[nH]n(-c2ccccc2)c(=S)c1/C=N/c1cccc([N+](=O)[O-])c1 [(4E)-5-methyl-4-[(3-nitroanilino)methylene]-2-phenyl-2-pyrazoline-3-thione]
> 30000	–	Cc1cccc(N2CCN(C(=O)CN3CCc4nc(C)cc(C)c4C3=O)CC2C)c1 (configuration not stated) [KUC103675N]
86	–	CC(=O)OCCCNc1cc(Sc2nc3ccccc3s2)c2nonc2c1[N+](=O)[O-] [MLS000521052]
127	–	Cc1cc(Cl)ccc1/N=c1/ssnc1Cl [MLS000539990]
78	–	O=C1C(Cl)=C(N2CCCCC2)C(=O)C(Cl)=C1c1cnc(N2CCCCC2)s1 [MLS000550549]
4340	–	CCC(=O)NC(c1ccc(C)cc1)c1cc([N+](=O)[O-])c2cccnc2c1O (configuration not stated) [MLS000553854]
–	3680	CCOc1ccccc1-c1c2cc(O)c(=O)cc-2oc2cc(O)c(O)cc12 [MLS000578271]
177	–	COc1ccc(C2=CC(=O)C=CC2=O)cc1 [MLS001029846]
123	–	O=C(COc1ccccc1C(=O)NN=Cc1ccc(O)c(O)c1)NN=Cc1ccc(O)c(O)c1 [N''-[(Z)-(3-hydroxy-4-oxo-1-cyclohexa-2,5-dienylidene)methyl]-2-[2-[[(Z)-(3-hydroxy-4-oxo-1-cyclohexa-2,5-dienylidene)methyl]hydrazo]-2-oxoethoxy]benzohydrazide]
701	–	CC1(C)OC(=O)C(=Cc2ccc(-c3ccc(S(N)(=O)=O)cc3)o2)C(=O)O1 [SMR000273939]
384	–	O=C(Cc1csc(N2CCOCC2)n1)NN=Cc1ccc(O)c(O)c1O [SMR000369439]
489	–	Nc1c(C(=O)NCC2CCCO2)sc2nc3c(c(-c4ccco4)c12)CC/C3=C/c1ccco1 (configuration not stated) [UNM-0000305796]
